Consider 16 compounds from US9006455B2 (Bristol-Myers Squibb Company, priority 2009, dated 2015).

The first test deals with HCV 1b genotype. In words: HCV Replicon assay (HCV 1b genotype). It is filed as cell-based. To be noted: Hepatitis C virus; HCV 1b genotype replicon; read-out: EC50. The procedure: An HCV Replicon assay was utilized in the present disclosure, and was prepared, conducted and validated as described in commonly owned PCT/US2006/022197 and in O'Boyle et al., Antimicrob. Agents Chemother., 49(4):1346-1353 (April 2005). Assay methods incorporating luciferase reporters have also been used as described (Apath.com).
HCV-neo replicon cells and replicon cells containing resistance substitutions in the NS5A region were used to test the currently described family of compounds. The compounds were determined to have differing degrees of reduced inhibitory activity on cells containing mutations vs. the corresponding inhibitory potency against wild-type cells. Thus, the compounds of the present disclosure can be effective in inhibiting the function of the HCV NS5A protein and are understood to be as effective in combinations as previously described in application PCT/US2006/022197 and commonly owned WO 04/014852. It should be understood that the compounds of the present disclosure can inhibit multiple genotypes of HCV. […] In one embodiment, compounds of the present disclosure are inhibitory versus 1a, 1b, 2a, 2b, 3a, 4a, and 5a genotypes.
For orientation: A replicon is a self-replicating genome or part of one, used to study replication in cells.
By EC50 is commonly meant the midpoint of the concentration-response curve. For the compound `COC(=O)N[C@H](C(=O)N1CCC[C@H]1c1nc2ccc(-c3ccc4cc(-c5ccc6nc([C@@H]7CCCN7C(=O)[C@@H](NC(=O)OC)C7CCOCC7)[nH]c6c5)ccc4c3)cc2[nH]1)C(C)C` [Example 27, Methyl((1S)-2-((2S)-2-(5-(6-(2-((2S)-1-((2S)-2-((methoxycarbonyl)amino)-3-methylbutanoyl)-2-pyrrolidinyl)-1H-benzimidazol-5-yl)-2-naphthyl)-1H-benzimidazol-2-yl)-1-pyrrolidinyl)-2-oxo-1-(tetrahydro-2H-pyran-4-yl)ethyl)carbamate], the EC50 is 0.00477 nM.

In the case of `COC(=O)N[C@H](C(=O)N1[C@@H]2C[C@@H]2C[C@H]1c1nc2ccc(-c3ccc4nc(-c5ccc6nc([C@@H]7C[C@H]8C[C@H]8N7C(=O)[C@@H](NC(=O)OC)C7CCOCC7)[nH]c6c5)cnc4c3)cc2[nH]1)C1CCOCC1` [Example 38, Dimethyl(2,6-quinoxalinediylbis(1H-benzimidazole-5,2-diyl(1R,3S,5R)-2-azabicyclo[3.1.0]hexane-3,2-diyl((1S)-2-oxo-1-(tetrahydro-2H-pyran-4-yl)-2,1-ethanediyl)))biscarbamate], the EC50 was 0.0421 nM. Take `COC(=O)N[C@H](C(=O)N1[C@@H]2C[C@@H]2C[C@H]1c1nc2ccc(-c3ccc4cc(-c5ccc6cc(-c7ccc8nc([C@@H]9C[C@H]%10C[C@H]%10N9C(=O)[C@@H](NC(=O)OC)C(C)C)[nH]c8c7)ccc6c5)ccc4c3)cc2[nH]1)C(C)C` [Example 46, Methyl((1S)-1-(((1R,3S,5R)-3-(5-(6′-(2-((1R,3S,5R)-2-((2S)-2-((methoxycarbonyl)amino)-3-methylbutanoyl)-2-azabicyclo[3.1.0]hex-3-yl)-1H-benzimidazol-5-yl)-2,2′-binaphthalen-6-yl)-1H-benzimidazol-2-yl)-2-azabicyclo[3.1.0]hex-2-yl)carbonyl)-2-methylpropyl)carbamate]: the EC50 came out at 170 nM.

As for `COC(=O)N[C@H](C(=O)N1[C@@H]2C[C@@H]2C[C@H]1c1ncc(-c2ccc3nc(-c4ccc5nc([C@@H]6C[C@H]7C[C@H]7N6C(=O)[C@@H](NC(=O)OC)C(C)C)[nH]c5c4)cnc3c2)[nH]1)C(C)C` [Example 52, Methyl((1S)-1-(((1R,3S,5R)-3-(4-(2-(2-((1R,3S,5R)-2-((2S)-2-((methoxycarbonyl)amino)-3-methylbutanoyl)-2-azabicyclo[3.1.0]hex-3-yl)-1H-benzimidazol-5-yl)-6-quinoxalinyl)-1H-imidazol-2-yl)-2-azabicyclo[3.1.0]hex-2-yl)carbonyl)-2-methylpropyl)carbamate], the EC50 was determined as 0.0059 nM. As to `COC(=O)N[C@H](C(=O)N1[C@@H]2C[C@@H]2C[C@H]1c1ncc(-c2ccc3nc(-c4ccc5nc([C@@H]6C[C@H]7C[C@H]7N6C(=O)[C@@H](NC(=O)OC)C6CCOCC6)[nH]c5c4)cnc3c2)[nH]1)C1CCOCC1` [Example 53, Methyl((1S)-2-((1R,3S,5R)-3-(4-(2-(2-((1R,3S,5R)-2-((2S)-2-((methoxycarbonyl)amino)-2-(tetrahydro-2H-pyran-4-yl)acetyl)-2-azabicyclo[3.1.0]hex-3-yl)-1H-benzimidazol-5-yl)-6-quinoxalinyl)-1H-imidazol-2-yl)-2-azabicyclo[3.1.0]hex-2-yl)-2-oxo-1-(tetrahydro-2H-pyran-4-yl)ethyl)carbamate], the EC50 was determined as 1.81 nM.

The same test, now with this note: Hepatitis C virus; HCV 1b genotype replicon; read-out: Range (EC50 values against HCV 1b).
Take `COC(=O)N[C@H](C(=O)N1CCC[C@H]1c1nc2nc(-c3ccc4cc(-c5cnc6[nH]c([C@@H]7CCCN7C(=O)[C@@H](NC(=O)OC)C(C)C)nc6n5)ccc4c3)cnc2[nH]1)C(C)C` [Example 24, Methyl((1S)-1-(((2S)-2-(5-(6-(2-((2S)-1-((2S)-2-((methoxycarbonyl)amino)-3-methylbutanoyl)-2-pyrrolidinyl)-1H-imidazo[4,5-b]pyrazin-5-yl)-2-naphthyl)-1H-imidazo[4,5-b]pyrazin-2-yl)-1-pyrrolidinyl)carbonyl)-2-methylpropyl)carbamate]: the EC50 lay within 0.0101 to 1 nM.

Regarding `COC(=O)N[C@H](C(=O)N1CCC[C@@H]1c1nc2nc(-c3ccc4cc(-c5cnc6[nH]c([C@@H]7CCCN7C(=O)[C@@H](NC(=O)OC)C(C)C)nc6n5)ccc4c3)cnc2[nH]1)C(C)C` [Example 25A, Methyl((1S)-1-(((2S)-2-(5-(6-(2-((2R)-1-((2S)-2-((methoxycarbonyl)amino)-3-methylbutanoyl)-2-pyrrolidinyl)-1H-imidazo[4,5-b]pyrazin-5-yl)-2-naphthyl)-1H-imidazo[4,5-b]pyrazin-2-yl)-1-pyrrolidinyl)carbonyl)-2-methylpropyl)carbamate], the EC50 was in the range of 1.01 to 1000 nM. `COC(=O)N[C@H](C(=O)N1CCC[C@@H]1c1nc2nc(-c3ccc4cc(-c5cnc6[nH]c([C@H]7CCCN7C(=O)[C@@H](NC(=O)OC)C(C)C)nc6n5)ccc4c3)cnc2[nH]1)C(C)C` [Example 25B, Methyl((1S)-1-(((2R)-2-(5-(6-(2-((2R)-1-((2S)-2-((methoxycarbonyl)amino)-3-methylbutanoyl)-2-pyrrolidinyl)-1H-imidazo[4,5-b]pyrazin-5-yl)-2-naphthyl)-1H-imidazo[4,5-b]pyrazin-2-yl)-1-pyrrolidinyl)carbonyl)-2-methylpropyl)carbamate]: the EC50 fell in the range of 1.01 to 1000 nM. The same measure, in the same setting: next, `COC(=O)N[C@H](C(=O)N1CCC[C@H]1c1nc2ccc(-c3ccc4cc(-c5ccc6nc([C@@H]7CCCN7C(=O)[C@@H](NC(=O)OC)C7CCOCC7)[nH]c6c5)ccc4c3)cc2[nH]1)C1CCOCC1` [Example 26, Dimethyl(2,6-naphthalenediylbis(1H-benzimidazole-5,2-diyl(2S)-2,1-pyrrolidinediyl((1S)-2-oxo-1-(tetrahydro-2H-pyran-4-yl)-2,1-ethanediyl)))biscarbamate]: 0.0101 to 1 nM. On the same count and under the same terms, in the case of `COC(=O)N[C@H](C(=O)N1CCC[C@H]1c1ncc(-c2ccc3cc(-c4ccc5nc([C@@H]6CCCN6C(=O)[C@@H](NC(=O)OC)C6CCOCC6)[nH]c5c4)ccc3c2)[nH]1)C1CCOCC1` [Example 28, Methyl((1S)-2-((2S)-2-(4-(6-(2-((2S)-1-((2S)-2-((methoxycarbonyl)amino)-2-(tetrahydro-2H-pyran-4-yl)acetyl)-2-pyrrolidinyl)-1H-benzimidazol-5-yl)-2-naphthyl)-1H-imidazol-2-yl)-1-pyrrolidinyl)-2-oxo-1-(tetrahydro-2H-pyran-4-yl)ethyl)carbamate] it was 0.0101 to 1 nM; in that of `COC(=O)N[C@H](C(=O)N1CCC[C@H]1c1ncc(C#Cc2ccc3cc(C#Cc4cnc([C@@H]5CCCN5C(=O)[C@@H](NC(=O)OC)C(C)C)[nH]4)ccc3c2)[nH]1)C(C)C` [Example 31, Methyl((1S)-1-(((2S)-2-(4-((6-((2-((2S)-1-((2S)-2-((methoxycarbonyl)amino)-3-methylbutanoyl)-2-pyrrolidinyl)-1H-imidazol-4-yl)ethynyl)-2-naphthyl)ethynyl)-1H-imidazol-2-yl)-1-pyrrolidinyl)carbonyl)-2-methylpropyl)carbamate], 0.0101 to 1 nM; in that of `COC(=O)N[C@H](C(=O)N1CCC[C@H]1c1ncc(-c2ccc3cc(-c4cnc([C@@H]5CCCN5C(=O)[C@@H](NC(=O)OC)C(C)C)[nH]4)ccc3c2)[nH]1)C(C)C` [Example 32], 0.0101 to 1 nM. With `COC(=O)N[C@H](C(=O)N1[C@@H]2C[C@@H]2C[C@H]1c1nc2ccc(-c3ccc4nc(-c5ccc6nc([C@@H]7C[C@H]8C[C@H]8N7C(=O)[C@@H](NC(=O)OC)C7CCOCC7)[nH]c6c5)cnc4c3)cc2[nH]1)C1CCOCC1` [Example 38, Dimethyl(2,6-quinoxalinediylbis(1H-benzimidazole-5,2-diyl(1R,3S,5R)-2-azabicyclo[3.1.0]hexane-3,2-diyl((1S)-2-oxo-1-(tetrahydro-2H-pyran-4-yl)-2,1-ethanediyl)))biscarbamate], the EC50 is 0.0101 to 1 nM.

With `COC(=O)N[C@H](C(=O)N1[C@@H]2C[C@@H]2C[C@H]1c1nc2ccc(-c3ccc4nc(-c5ccc6nc([C@@H]7C[C@H]8C[C@H]8N7C(=O)[C@@H](NC(=O)OC)C7CCOCC7)[nH]c6c5)ccc4c3)cc2[nH]1)C1CCOCC1` [Example 39, Dimethyl(2,6-quinolinediylbis(1H-benzimidazole-5,2-diyl(1R,3S,5R)-2-azabicyclo[3.1.0]hexane-3,2-diyl((1S)-2-oxo-1-(tetrahydro-2H-pyran-4-yl)-2,1-ethanediyl)))biscarbamate], the EC50 lay in the range of 0.0101 to 1 nM. The same measure, in the same setting: next, `COC(=O)N[C@H](C(=O)N1CCC[C@H]1c1ncc(-c2ccc3cc(-c4ccc5c(ccc6nc([C@@H]7CCCN7C(=O)[C@@H](NC(=O)OC)C7CCOCC7)[nH]c65)c4)ccc3c2)[nH]1)C1CCOCC1` [Example 42]: 0.0101 to 1 nM; `COC(=O)N[C@H](C(=O)N1[C@@H]2C[C@@H]2C[C@H]1c1ncc(-c2ccc3cc(-c4ccc5nc([C@@H]6C[C@H]7C[C@H]7N6C(=O)[C@@H](NC(=O)OC)C6CCOCC6)[nH]c5c4)ccc3c2)[nH]1)C1CCOCC1` [Example 45, Methyl((1S)-2-((1R,3S,5R)-3-(4-(6-(2-((1R,3S,5R)-2-((2S)-2-((methoxycarbonyl)amino)-2-(tetrahydro-2H-pyran-4-yl)acetyl)-2-azabicyclo[3.1.0]hex-3-yl)-1H-benzimidazol-5-yl)-2-naphthyl)-1H-imidazol-2-yl)-2-azabicyclo[3.1.0]hex-2-yl)-2-oxo-1-(tetrahydro-2H-pyran-4-yl)ethyl)carbamate]: 0.0101 to 1 nM; `COC(=O)N[C@H](C(=O)N1[C@@H]2C[C@@H]2C[C@H]1c1nc2ccc(-c3ccc4cc(-c5ccc6cc(-c7ccc8nc([C@@H]9C[C@H]%10C[C@H]%10N9C(=O)[C@@H](NC(=O)OC)C(C)C)[nH]c8c7)ccc6c5)ccc4c3)cc2[nH]1)C(C)C` [Example 46, Methyl((1S)-1-(((1R,3S,5R)-3-(5-(6′-(2-((1R,3S,5R)-2-((2S)-2-((methoxycarbonyl)amino)-3-methylbutanoyl)-2-azabicyclo[3.1.0]hex-3-yl)-1H-benzimidazol-5-yl)-2,2′-binaphthalen-6-yl)-1H-benzimidazol-2-yl)-2-azabicyclo[3.1.0]hex-2-yl)carbonyl)-2-methylpropyl)carbamate]: 1.01 to 1000 nM. Still for that read-out and setting: in the case of `COC(=O)N[C@H](C(=O)N1[C@@H]2C[C@@H]2C[C@H]1c1nc(Cl)c(-c2ccc3cc(-c4ccc5nc([C@@H]6C[C@H]7C[C@H]7N6C(=O)[C@@H](NC(=O)OC)C6CCOCC6)[nH]c5c4)ccc3c2)[nH]1)C1CCOCC1` [Example 50, Methyl((1S)-2-((1R,3S,5R)-3-(4-chloro-5-(6-(2-((1R,3S,5R)-2-((2S)-2-((methoxycarbonyl)amino)-2-(tetrahydro-2H-pyran-4-yl)acetyl)-2-azabicyclo[3.1.0]hex-3-yl)-1H-benzimidazol-5-yl)-2-naphthyl)-1H-imidazol-2-yl)-2-azabicyclo[3.1.0]hex-2-yl)-2-oxo-1-(tetrahydro-2H-pyran-4-yl)ethyl)carbamate] it was 0.0101 to 1 nM; in that of `COC(=O)N[C@H](C(=O)N1[C@@H]2C[C@@H]2C[C@H]1c1ncc(-c2ccc3nc(-c4ccc5nc([C@@H]6C[C@H]7C[C@H]7N6C(=O)[C@@H](NC(=O)OC)C6CCOCC6)[nH]c5c4)cnc3c2)[nH]1)C1CCOCC1` [Example 53, Methyl((1S)-2-((1R,3S,5R)-3-(4-(2-(2-((1R,3S,5R)-2-((2S)-2-((methoxycarbonyl)amino)-2-(tetrahydro-2H-pyran-4-yl)acetyl)-2-azabicyclo[3.1.0]hex-3-yl)-1H-benzimidazol-5-yl)-6-quinoxalinyl)-1H-imidazol-2-yl)-2-azabicyclo[3.1.0]hex-2-yl)-2-oxo-1-(tetrahydro-2H-pyran-4-yl)ethyl)carbamate], 1.01 to 1000 nM.
